Experimental data reported in PubChem BioAssay (NCI).
“And” between values parts separate entries of the source, which are not always exact repeats. Identical values can stand only once.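 Where inhibition never reached the appropriate level, the endpoint shown equals the highest concentration tested. Otherwise, values were interpolated linearly from a five-concentration, 48-hour dose response in 96-well plates. GI50 marks 50% less growth. TGI denotes the concentration required for complete inhibition of growth.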

Legend:
Assay in all cases: inhibition of tumour cell growth, NCI panel, 48 h
RPMI-8226 leukemia = system: RPMI-8226 leukemia
SNB-78 CNS = system: SNB-78 CNS
LXFL 529 NSCLC = system: LXFL 529 NSCLC
M19-MEL melanoma = system: M19-MEL melanoma
HT29 colon = system: HT29 colon
SK-OV-3 ovarian = system: SK-OV-3 ovarian
SK-MEL-2 melanoma = system: SK-MEL-2 melanoma
DMS 114 small cell lung = system: DMS 114 small cell lung
NCI-H460 lung = system: NCI-H460 lung
LOX IMVI melanoma = system: LOX IMVI melanoma
T-47D breast = system: T-47D breast
HS 578T breast = system: HS 578T breast

CC[C@@H]1OC2(C)CC(S(=O)(=O)c3ccccc3)CC1O2 (stereo not given in full)
TGI (RPMI-8226 leukemia): > 100 µM
TGI (SNB-78 CNS): > 100 µM
TGI (LXFL 529 NSCLC): > 100 µM
TGI (M19-MEL melanoma): > 100 µM
TGI (HT29 colon): > 100 µM
TGI (SK-OV-3 ovarian): > 100 µM
TGI (SK-MEL-2 melanoma): > 100 µM
TGI (DMS 114 small cell lung): > 100 µM
TGI (NCI-H460 lung): > 100 µM

CCc1cccc(C)c1NC(=O)NS(=O)(=O)c1ccc(C)cc1
TGI (RPMI-8226 leukemia): > 100 µM
TGI (SNB-78 CNS): > 100 µM
TGI (LXFL 529 NSCLC): > 100 µM
TGI (M19-MEL melanoma): > 100 µM
TGI (SK-OV-3 ovarian): > 100 µM
TGI (LOX IMVI melanoma): > 100 µM
TGI (SK-MEL-2 melanoma): > 100 µM
TGI (DMS 114 small cell lung): > 100 µM
TGI (NCI-H460 lung): > 100 µM

CCOC(=O)C(C[Si](C)(C)C)P(=O)(OCC)OCC (stereo not given)
TGI (RPMI-8226 leukemia): > 100 µM
TGI (SNB-78 CNS): > 100 µM
TGI (LXFL 529 NSCLC): > 100 µM
TGI (M19-MEL melanoma): > 100 µM
TGI (HT29 colon): > 100 µM
TGI (SK-OV-3 ovarian): > 100 µM
TGI (LOX IMVI melanoma): > 100 µM
TGI (DMS 114 small cell lung): > 100 µM
TGI (NCI-H460 lung): > 100 µM

O=C1C(c2ccccc2)=C(c2ccccc2)C(c2ccc(CCCCCCc3ccc(C4=C(c5ccccc5)C(=O)C(c5ccccc5)=C4c4ccccc4)cc3)cc2)=C1c1ccccc1
TGI (RPMI-8226 leukemia): > 100 µM
TGI (SNB-78 CNS): > 100 µM
TGI (LXFL 529 NSCLC): > 100 µM
TGI (M19-MEL melanoma): > 100 µM
TGI (HT29 colon): > 100 µM
TGI (SK-MEL-2 melanoma): > 100 µM
TGI (DMS 114 small cell lung): > 100 µM
TGI (NCI-H460 lung): > 100 µM

O=C1C2=C(c3ccccc31)C(c1ccccc1Cl)N1C(=O)CSC1=N2 (stereo not given)
TGI (RPMI-8226 leukemia): > 100 µM
TGI (LXFL 529 NSCLC): > 100 µM
TGI (M19-MEL melanoma): > 100 µM
TGI (HT29 colon): > 100 µM
TGI (SK-OV-3 ovarian): > 100 µM
TGI (LOX IMVI melanoma): > 100 µM
TGI (SK-MEL-2 melanoma): > 100 µM
TGI (DMS 114 small cell lung): > 100 µM
TGI (NCI-H460 lung): > 100 µM

COc1ccccc1-n1c(SCc2cc(OC)c(OC)c(OC)c2)nc2ccc(Cl)cc2c1=O
GI50 (RPMI-8226 leukemia): 3.71 µM
TGI (RPMI-8226 leukemia): > 100 µM
GI50 (T-47D breast): 4.95 µM
TGI (T-47D breast): > 100 µM
GI50 (HT29 colon): 2.91 µM
TGI (HT29 colon): > 100 µM
GI50 (SK-OV-3 ovarian): 7.76 µM
TGI (SK-OV-3 ovarian): > 100 µM
GI50 (LOX IMVI melanoma): 5.16 µM
TGI (LOX IMVI melanoma): > 100 µM
GI50 (HS 578T breast): 5.81 µM
TGI (HS 578T breast): > 100 µM
GI50 (SK-MEL-2 melanoma): 4.88 µM
TGI (SK-MEL-2 melanoma): > 100 µM
GI50 (NCI-H460 lung): 3.34 µM
TGI (NCI-H460 lung): > 100 µM

COc1ccc(C(O)c2cc3c(N)c(C(=O)Nc4cccc(Br)c4)sc3nc2C)cc1 (stereo not given)
GI50 (RPMI-8226 leukemia): 0.371 µM
TGI (RPMI-8226 leukemia): 33.6 µM
GI50 (T-47D breast): 22.5 µM
TGI (T-47D breast): > 100 µM
GI50 (HT29 colon): 0.109 µM
GI50 (SK-OV-3 ovarian): 0.197 µM
TGI (SK-OV-3 ovarian): > 65.1 µM
GI50 (LOX IMVI melanoma): 0.154 µM
TGI (LOX IMVI melanoma): > 32.4 µM
GI50 (HS 578T breast): 0.101 µM
TGI (HS 578T breast): > 21.7 µM
GI50 (SK-MEL-2 melanoma): 0.572 µM
TGI (SK-MEL-2 melanoma): > 21.9 µM
GI50 (NCI-H460 lung): 0.109 µM
TGI (NCI-H460 lung): 3.61 µM

Cc1ccc(NC(=O)C(=O)Cc2nc3ccccc3o2)c(C)c1
TGI (RPMI-8226 leukemia): > 100 µM
TGI (SNB-78 CNS): > 100 µM
TGI (LXFL 529 NSCLC): > 100 µM
TGI (M19-MEL melanoma): > 100 µM
TGI (HT29 colon): > 100 µM
TGI (SK-OV-3 ovarian): > 100 µM
TGI (LOX IMVI melanoma): > 100 µM
TGI (SK-MEL-2 melanoma): > 100 µM
TGI (DMS 114 small cell lung): > 100 µM
TGI (NCI-H460 lung): > 100 µM

Oc1ccccc1-n1c(-c2ccccc2)ccc1-c1ccccc1
GI50 (RPMI-8226 leukemia): 3.71 µM
TGI (RPMI-8226 leukemia): 17.9 µM
GI50 (T-47D breast): 4.12 µM
TGI (T-47D breast): 32.9 µM
GI50 (HT29 colon): 2.22 µM
TGI (HT29 colon): 11 µM
GI50 (SK-OV-3 ovarian): 8.93 µM
TGI (SK-OV-3 ovarian): > 100 µM
GI50 (LOX IMVI melanoma): 6.1 µM
TGI (LOX IMVI melanoma): 20.5 µM
GI50 (HS 578T breast): 14 µM
TGI (HS 578T breast): > 100 µM
GI50 (SK-MEL-2 melanoma): 4.63 µM
TGI (SK-MEL-2 melanoma): 19.4 µM
GI50 (NCI-H460 lung): 4.35 µM
TGI (NCI-H460 lung): 17.7 µM

C=C1C(C)C2C(Cc3ccccc3)NC(=O)C23C(OC(C)=O)/C=C/C(C)(O)CC(C)C/C=C/C3C1O (stereo not given)
TGI (RPMI-8226 leukemia): 71.2 µM
TGI (T-47D breast): > 100 µM
TGI (SNB-78 CNS): 1.3 µM
TGI (M19-MEL melanoma): > 100 µM
TGI (HT29 colon): > 100 µM
TGI (SK-OV-3 ovarian): 46.6 µM
TGI (LOX IMVI melanoma): 19.2 µM
TGI (HS 578T breast): 0.62 µM
TGI (SK-MEL-2 melanoma): 76.5 µM
TGI (DMS 114 small cell lung): > 100 µM
TGI (NCI-H460 lung): > 95.2 µM

COC(=O)C1=C(C(=O)OC)C2(C(=O)OC)OC1(OC)C(C1(C(=O)OC)C(C(=O)OC)=C1C(=O)OC)=C2C(=O)OC (stereo not given)
TGI (RPMI-8226 leukemia): > 100 µM
TGI (SNB-78 CNS): > 100 µM
TGI (LXFL 529 NSCLC): > 100 µM
TGI (M19-MEL melanoma): > 100 µM
TGI (HT29 colon): > 100 µM
TGI (SK-OV-3 ovarian): > 100 µM
TGI (LOX IMVI melanoma): > 100 µM
TGI (SK-MEL-2 melanoma): > 100 µM
TGI (DMS 114 small cell lung): > 100 µM
TGI (NCI-H460 lung): > 100 µM

CCSC1=CC(=O)c2ccccc2C1=O
GI50 (RPMI-8226 leukemia): 1.49 µM
TGI (RPMI-8226 leukemia): 5.65 µM
GI50 (T-47D breast): 0.318 µM
TGI (T-47D breast): 0.959 µM
GI50 (HT29 colon): 15.5 µM
TGI (HT29 colon): 34.7 µM
GI50 (SK-OV-3 ovarian): 18.1 µM
TGI (SK-OV-3 ovarian): 32 µM
GI50 (LOX IMVI melanoma): 2.55 µM
TGI (LOX IMVI melanoma): 8.89 µM
GI50 (HS 578T breast): 13.8 µM
TGI (HS 578T breast): > 69.3 µM
GI50 (SK-MEL-2 melanoma): 6.48 µM
TGI (SK-MEL-2 melanoma): 15.9 µM
GI50 (NCI-H460 lung): 20.5 µM
TGI (NCI-H460 lung): 46.8 µM

CC1=C2C(c3ccccc3)(c3ccccc3)C3C=CC2(C=N3)N(C(=O)NC2CCCCC2)C1=O (stereo not given)
TGI (RPMI-8226 leukemia): 37.8 µM
TGI (SNB-78 CNS): 31.9 µM
TGI (LXFL 529 NSCLC): 30.1 µM
TGI (SK-OV-3 ovarian): 44.3 µM
TGI (LOX IMVI melanoma): 29.5 µM
TGI (DMS 114 small cell lung): 32.5 µM

CN(C)c1ccc(/C=C/c2ccnc3ccccc23)cc1
GI50 (RPMI-8226 leukemia): 2.77 µM
TGI (RPMI-8226 leukemia): > 100 µM and 12.9 µM
GI50 (T-47D breast): 2.57 µM
TGI (T-47D breast): > 100 µM and 63.8 µM
GI50 (HT29 colon): 3.18 µM
TGI (HT29 colon): 84.3 µM and 11.8 µM
GI50 (SK-OV-3 ovarian): 4.42 µM
TGI (SK-OV-3 ovarian): > 100 µM and 48.7 µM
GI50 (LOX IMVI melanoma): 4.7 µM
TGI (LOX IMVI melanoma): > 100 µM and 19.7 µM
GI50 (HS 578T breast): 3.67 µM
TGI (HS 578T breast): 57 µM and > 30.1 µM
GI50 (SK-MEL-2 melanoma): 26.2 µM
TGI (SK-MEL-2 melanoma): > 100 µM
GI50 (NCI-H460 lung): 3.07 µM
TGI (NCI-H460 lung): > 100 µM and 16.8 µM

COC1=C(OC)CCC(/C(C#N)=C/c2ccc(OC)c(OC)c2)=C1
TGI (RPMI-8226 leukemia): > 100 µM
TGI (SNB-78 CNS): > 100 µM
TGI (LXFL 529 NSCLC): > 100 µM
TGI (M19-MEL melanoma): > 100 µM
TGI (HT29 colon): > 100 µM
TGI (SK-OV-3 ovarian): 91.3 µM
TGI (LOX IMVI melanoma): > 100 µM
TGI (SK-MEL-2 melanoma): > 100 µM
TGI (DMS 114 small cell lung): > 100 µM
TGI (NCI-H460 lung): > 100 µM

CCCCCCCCCC(=O)CC(=O)c1c(O)cccc1O
TGI (RPMI-8226 leukemia): 61.2 µM
TGI (SNB-78 CNS): > 100 µM
TGI (LXFL 529 NSCLC): > 100 µM
TGI (M19-MEL melanoma): > 100 µM
TGI (HT29 colon): 65.8 µM
TGI (SK-OV-3 ovarian): 64.1 µM
TGI (LOX IMVI melanoma): 49.6 µM
TGI (SK-MEL-2 melanoma): 67 µM
TGI (DMS 114 small cell lung): 89.5 µM
TGI (NCI-H460 lung): > 100 µM
